Results published in patent US8541461B2 (Astex Therapeutics Limited, priority 2005, dated 2013).
Values belong to the compound of their own block, whether it stands above or below them.

Assays:
PKA catalytic domain = molecular target: T1, PKA catalytic domain (Homo sapiens, UniProt P17612); assay: Measurement of PKA kinase inhibitory activity (IC50); assay type: biochemical; conditions: 1 nM enzyme, 40 μM ATP/γ33P-ATP, 5 μM substrate; read-out: PKA IC50
T1 construct: PKA catalytic domain from Upstate Biotechnology (#14-440); purchased Upstate Biotechnology 14-440
Method: A final concentration of 1 nM enzyme is used in a buffer that includes 20 mM MOPS pH 7.2, 40 μM ATP/γ^33P-ATP and 5 μM substrate. […] The reaction is allowed to proceed for 20 minutes before addition of excess orthophosphoric acid to quench activity. Unincorporated γ^33P-ATP is then separated from phosphorylated proteins on a Millipore MAPH filter plate. The plates are washed, scintillant is added and the plates are then subjected to counting on a Packard Topcount.

[1] = molecular target: T2, PKB-PIF fusion protein (protein kinase B) (Homo sapiens, UniProt P31751); assay: Measurement of PKB kinase inhibitory activity (IC50); assay type: biochemical; conditions: 0.6 nM enzyme, 30 μM ATP/γ33P-ATP, 25 μM AKTide-2T substrate; read-out: PKB IC50
T2 construct: PIF (fusion partner); made in house
T2 sequence (P31751 with tags, fused parts or gaps limits assumed): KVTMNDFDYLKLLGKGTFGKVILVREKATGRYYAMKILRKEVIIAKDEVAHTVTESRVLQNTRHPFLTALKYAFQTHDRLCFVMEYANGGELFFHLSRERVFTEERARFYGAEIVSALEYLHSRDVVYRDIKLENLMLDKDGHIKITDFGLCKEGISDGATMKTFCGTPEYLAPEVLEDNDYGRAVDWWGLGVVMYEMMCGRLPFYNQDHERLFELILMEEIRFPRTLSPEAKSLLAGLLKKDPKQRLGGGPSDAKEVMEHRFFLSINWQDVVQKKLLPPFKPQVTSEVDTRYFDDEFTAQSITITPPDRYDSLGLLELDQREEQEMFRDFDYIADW
Method: The reaction is allowed to proceed for 20 minutes before addition of excess orthophosphoric acid to quench activity. The reaction mixture is transferred to a phosphocellulose filter plate where the peptide binds and the unused ATP is washed away. After washing, scintillant is added and the incorporated activity measured by scintillation counting.

[2] = clinical studies; cited from earlier work
PKG = conditions: cited from earlier work
OVCAR-3 tumour cells = conditions: concentrations of 50 and 100 microM; cited from earlier work
PKC = conditions: cited from earlier work
[3] = doses 10 times more than were needed for antitumour activity; cited from earlier work
[4] = system: Acute Promyelocytic Leukemia (APL) patients; conditions: cited from earlier work
[5] = system: P-glycoprotein-overexpressing subline of leukemic cell line CCRF-CEM; conditions: read-out: IC50 against P-glycoprotein-overexpressing subline; cited from earlier work
[6] = antitumour agent; cited from earlier work

IC50 (PKA catalytic domain): < 1000 nM | IC50 [1]: < 1000 nM
Compound: COc1ccc(C2(c3ccc(-c4cn[nH]c4)cc3)CCNCC2)cc1Cl [Example 86, 4-(3-Chloro-4-methoxy-phenyl)-4-[4-(1H-pyrazol-4-yl)-phenyl]-piperidine]

IC50 (PKA catalytic domain): < 1000 nM | IC50 [1]: < 1000 nM
Compound: NCCC(c1ccc(-c2cn[nH]c2)cc1)c1cccc(Cl)c1 (stereo not drawn) [Example 90, 3-(3-Chloro-phenyl)-3-[4-(1H-pyrazol-4-yl)-phenyl]-propylamine]

Compound: CCCCCCCCCCCCCCCCCCOP(=O)([O-])OC1CC[N+](C)(C)CC1 [KRX-0401, Perifosine]
half-life [2]: ~100 h

Compound: O=S(=O)(NCCNCC=C(c1ccccc1)c1ccccc1)c1cccc2cnccc12 [NL-71-101]
IC50 (PKG): 36 µM | apoptosis in OVCAR-3 tumour cells, in which PKB is amplified (OVCAR-3 tumour cells): induced apoptosis | IC50 (PKC): 104 µM

Compound: CCOC(=O)c1ccc2[nH]c3c(OC)c4[nH]c5ccc(C(=O)OCC)cc5c4cc3c2c1 [SR-13668]
adverse effects in mice [3]: no adverse effects

Compound: CC1=C(/C=C/C(C)=C/C=C/C(C)=C/C(=O)O)C(C)(C)CCC1 [Tretinoin, all-trans retinoic acid]
remissions in APL patients [4]: 64-100%

Compound: C/C1=C/C[C@@H](/C(C)=C/c2csc(C)n2)OC(=O)C[C@H](O)C(C)(C)C(=O)[C@H](C)[C@@H](O)[C@@H](C)CCC1 [desoxyepothilone B]
IC50 [5]: 17 nM

Compound: calicheamicin
potency relative to adriamycin [6]: over 1,000 times
